From patent publication US20110144353A1, “5-HYDROXY-4-AMINOMETHYL-1-C[…] (CYCLOHEPTYL)--3-ALKO[…] DERIVATIVES, PHARMA[…] SALTS THEREOF AND A METHOD FOR THE PRODUCTION THEREOF” (OBSCHESTVO S ORGANICHENNOY OTVETSTVENNOSTJU <<BINATEKH>>, priority 2008, published 2011)
In brackets after ≈: the same amount, converted by molar mass.

Experiments:
[1] = system: influenza A/Aichi/2/69 (H3N2) virus; experiment: Murine influenza pneumonia model; type: in vivo, mice; settings: for Mean Life Span / Mortality / Survival rate: mice infected with 10 LD50; for Mortality reduction: versus virus control
Experimental: Determination of the efficacy of the compounds in the murine influenza pneumonia model.
The experiments were carried out on 60 white mice weighing 12-15 g. The animals were infected intranasally under light ether anesthesia with the influenza A/Aichi/2/69 (H3N2) virus (10 LD50). The compounds to be tested were administered per os in a dose of 60 or 15 mg/kg/day. The treatment was carried out according to the following scheme: 24 hours and 1 hour before infection, and then 2 times a day (at 8 o'clock in the morning and 8 o'clock in the evening) for 5 days. The chemotherapeutic activity of Arbidol and compound A in the murine influenza pneumonia model was assessed according to two criteria: the index of protection against fatal viral infection and the increase in mean life span of the treated animals as compared with the control group. The mean life span of the mice was calculated according to the following formula: Σf(d−1)/n, where f is the number of mice dying on day d (the surviving mice were also included in f; d in this case=16); n is the number of mice in the group.

[2] = system: Influenza A/New Caledonia/20/99 (H1N1) Virus; experiment: microbe, parasite or virus in culture; type: cell-based; settings: for MIC50: Influenza A virus, H1N1, MDCK cells, concentration decreasing OD by 50%, solvent alcohol

Row | Compound | Efficacy in animal experiments ([1]; 15 mg/kg/day) | Mean Life Span ([1]; 15 mg/kg/day per os) [days] | Mortality ([1]; 15 mg/kg/day per os) [%] | Survival rate ([1]; 15 mg/kg/day per os) | Mortality reduction ([1]; 15 mg/kg/day per os) [%] | Activity in animal experiments compared with Arbidol ([1]; summary of Table 2) | Activity at 10 μg/mL [2] [%] | MIC50 [2] [µg/mL] | Activity in in vitro experiments compared with Arbidol ([2]; summary of Table 1) | Mean Life Span ([1]; 60 mg/kg/day per os) [days] | Mortality ([1]; 60 mg/kg/day per os) [%] | Survival rate ([1]; 60 mg/kg/day per os) | Mortality reduction ([1]; 60 mg/kg/day per os) [%]
1 | CCOC(=O)c1c(C)n(C2CCCCC2)c2ccc(O)c(CN(C)C)c12 [Compound A, 5-hydroxy-4-dimethylaminomethyl-2-methyl-1-cyclohexyl-3-ethoxycarbonyl indole] | equal to the efficacy of Arbidol at a dose 4 times higher | 11.5 | 40 | 5/8 | 50 | significantly more active than Arbidol | 96.5 | 5.4 (≈ 15.1 µM) | somewhat more active than Arbidol |  |  |  | 
2 | CCOC(=O)c1c(CSc2ccccc2)n(C)c2cc(Br)c(O)c(CN(C)C)c12 [Arbidol, 1-methyl-2-phenylthiomethyl-3-carbethoxy-4-dimethylaminomethyl-5-oxy-6-bromindol] |  | 7.3 | 70 | 3/10 | 20 |  | 89.5 | 6 (≈ 12.6 µM) |  | 10.8 | 40 | 6/10 | 50
